# In the METLIN SMRT retention time set (Domingo-Almenara et al. 2019):
# Experiment: gradient 5% acetonitrile 3 min, to 50% in 2 min, to 85% in 15 min, held 3 min, 100 µL/min
# Conditions: column: Zorbax Extend-C18 2.1 x 50 mm; eluents: water / acetonitrile, 0.1% formic acid
# Summary of the method: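 The mobile phases were water and acetonitrile, each with 0.1% formic acid, pumped at 100 μL/min through a Zorbax Extend-C18 column (2.1 × 50 mm, 1.8 μm). Pure standards were injected as mixtures of ~100 molecules and detected by a quadrupole time-of-flight mass spectrometer in positive and negative ionization mode. Retention time came from computationally picked adduct peaks, each inspected by hand.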
row,Structure (SMILES),RP-LC retention time
1,C=CCNc1ncnc2ccc(Br)cc12,671 s
2,COc1ccc(S(=O)(=O)N2CCC(OCCOCc3ccccc3)CC2)cc1,1050 s
3,COc1ccc(C(=O)NC(C)C(=O)Nc2nc3ccccc3[nH]2)cc1 (stereo not drawn),648 s
4,CCCC(=O)Nc1nc(-c2ccccc2)c(-c2ccccc2)s1,1160 s
5,CCOC(=O)c1c(C)n(Cc2ccco2)c2ccc(OC)cc12,1050 s
6,CCn1cc(S(=O)(=O)N2CCCCC2CCn2cc(-c3ccccc3)nn2)cn1 (stereo not drawn),804 s
7,COc1ccc(OC)c(S(=O)(=O)N2CCCC(C(=O)N3CCOCC3)C2)c1 (stereo not drawn),664 s
8,CCc1nnc(-c2ccc(S(=O)(=O)N3CCC(C)CC3)o2)o1,920 s
9,CCC(=O)Nc1ccc2c(c1)Sc1ncccc1C(=O)N2C(C)C,704 s
10,Cc1cc2oc(C(=O)NCC(c3cccs3)N(C)C)cc(=O)c2cc1Cl (stereo not drawn),652 s
11,Cc1cc(=O)oc2c3c(cc(OCC(=O)N[C@@H](C(=O)O)C(C)C)c12)OC(C)(C)CC3,833 s
12,CCN(CC)S(=O)(=O)c1cc(-c2nnc(C)o2)co1,737 s
13,Cc1nc([C@@H]2CN(C(=O)c3cc(C)n(Cc4ccco4)c3C)C[C@H]2C(N)=O)n[nH]1,618 s
14,Cc1ccc(-c2nnc(N3CCC(C(=O)NCCCN4CCOCC4)CC3)o2)cc1,608 s
15,Clc1ccc(OCc2nc3c4ccccc4ncn3n2)cc1,951 s
16,CC(C)C(=O)NCCc1csc(C2CCCN(C(=O)C3CCCO3)C2)n1 (stereo not drawn),622 s
17,O=C(O)c1ccc(NC(=O)c2ccc([N+](=O)[O-])cc2Cl)cc1,719 s
18,Cc1ccc(NC(=O)Cn2nc(N(C)C)c3ccccc3c2=O)c(C)c1,869 s
19,CCc1noc(NC(C)=O)c1-c1ccc(C)c(S(=O)(=O)Nc2c(Cl)cc(OC)cc2OC)c1,827 s
20,COc1ccc(NC(=O)Cc2c(C)nn(-c3nc(-c4ccc(Cl)cc4)cs3)c2C)c(OC)c1,1230 s
21,Cc1cnc(C2CC2)n1CCNS(=O)(=O)c1cc(F)cc(F)c1,615 s
22,Cc1nnc(C2CC3(CCN(CC(C)C)CC3)CN2Cc2ccccc2)o1 (stereo not drawn),566 s
23,NC(=O)c1oc2ccccc2c1NC(=O)c1coc2ccccc2c1=O,769 s

row,Structure (SMILES),RP-LC retention time
1,CC1(C)CC(=O)c2cc3c(N)c(C(=O)Nc4ccccc4[N+](=O)[O-])sc3nc2C1,1100 s
2,Cc1ccccc1Cn1c2ccccc2c2cnn(CC(=O)NCc3ccco3)c(=O)c21,975 s
3,O=C(Cn1c(=O)oc2ccccc21)N1CC2CC(C1)c1cccc(=O)n1C2 (stereo not drawn),588 s
4,COc1ccc(NC(=O)Cn2cccc(-c3nc(-c4ccc(Br)cc4)no3)c2=O)cc1,925 s
5,COc1ccc(-c2nc(-c3cccc(-c4ccnn4C)c3)no2)cc1OC,1020 s
6,CCCCn1c(N)c(C(=O)OCC)c2nc3ccccc3nc21,613 s
7,COc1ccc2c(OCc3nnc4ccc(-c5ccccc5)nn34)ccnc2c1,690 s
8,CCc1ccc(NC(=O)N(C)CCc2noc(COc3ccccc3)n2)cc1,962 s
9,O=C(NC1CCCCC1)c1ccc(Nc2c(-c3ccccc3)nc3cnccn23)cc1,802 s
10,Cc1csc(NC(=O)c2sc3nc(-c4cccc([N+](=O)[O-])c4)cn3c2C)n1,800 s
11,CCOc1ccc(N2C(=O)C3N=NN(Cc4nc(-c5ccccc5OCC)no4)C3C2=O)cc1 (stereo not drawn),980 s
12,COCC(=O)Nc1ccccc1NC(=O)c1ccsc1,648 s
13,O=C(NCc1ccc2c(c1)OCO2)C1CCCN(c2ncnc3c2nc2n3CCCCC2)C1 (stereo not drawn),750 s
14,CCCN1CCN(c2ncc3c(n2)CCN(Cc2cc(F)cc(F)c2)C3)CC1,549 s
15,COc1ccc(S(=O)(=O)N2C[C@H](F)C[C@@H]2C(=O)N2CCOCC2)cc1Cl,721 s
16,CCc1ccc(N2CC(c3nc(-c4ccc(OC)cc4OC)no3)CC2=O)cc1 (stereo not drawn),998 s
17,CCN(CC)C(=O)c1ccc2c(c1)N(CC(=O)NCCN1CCN(C)CC1)C(=O)CO2,567 s
18,COc1ccccc1-n1c(SCC(=O)Nc2cc(C)on2)nc2c(c1=O)SCC2,728 s
19,CC(C)(C)C(=O)N[C@H](Cc1ccccc1)C(=O)NCc1cscn1,714 s
20,COc1ccc(-c2noc(C3CCCN(S(=O)(=O)c4ccc(C)cc4)C3)n2)cc1OC (stereo not drawn),993 s
21,Cc1ccc(-c2nnc(Cc3nc(-c4cccnc4)no3)o2)cc1F,812 s
22,CCCCOC(=O)c1ccc(NC(=O)c2snnc2CC)cc1,1010 s
23,CCN1C=C(C(=O)OCc2cc(C)ccc2C)C(C)=NS1(=O)=O,1060 s

# Now from value to molecule:
row,RP-LC retention time,Structure (SMILES)
1,818 s,O=C(NC1CC1)c1nc(C(=O)N2CCN(c3ccccc3F)CC2)cs1
2,693 s,O=C(Cn1cnc2nc(N3CCCC(C(=O)NC4CC4)C3)sc2c1=O)Nc1cc(F)ccc1F (stereo not drawn)
3,576 s,O=C1CC(c2noc(CN3CCN(c4ccccn4)CC3)n2)CN1c1ccc(F)cc1 (stereo not drawn)
4,715 s,COc1cc(NC(=O)Cn2nc3c4ccc(F)cc4ncn3c2=O)cc(OC)c1
5,621 s,O=S(=O)(c1ccc2c(c1)OCCO2)N1CCCn2nc(-c3cccnc3)cc2C1
6,621 s,CC1CCN(CCNC(=O)c2ccc3c(c2)nc2n3CCN(Cc3ccccc3)C2=O)CC1
7,800 s,Cn1nc(-c2nc(-c3ccccc3F)no2)c2c1CCN(C(=O)NC1CCCC1)C2
8,748 s,Cc1ccc(-n2nc3c(N4CCCC(C(=O)NCCc5cccs5)C4)nnc(C)c3c2C)cc1 (stereo not drawn)
9,690 s,Cn1nc(C(=O)N2CCCC(c3nnc(-c4ccccc4F)s3)C2)ccc1=O (stereo not drawn)
10,659 s,Cc1cccc2nnc(N3CCCC(C(=O)NCc4cccs4)C3)n12 (stereo not drawn)
11,814 s,O=C(CN1C(=O)C2CCCCN2c2ccc(C(=O)N3CCCC3)cc21)NC1CCCCC1 (stereo not drawn)
12,1070 s,CSc1ccc(-c2noc(Cn3c(=O)n(CC4CCCO4)c(=O)c4ccccc43)n2)cc1 (stereo not drawn)
13,642 s,COc1cccc(C(c2sc3ncnn3c2O)N2CCN(C(=O)c3ccco3)CC2)c1 (stereo not drawn)
14,723 s,O=c1ccc(S(=O)(=O)N2CCOCC2)cn1Cc1ccccc1F
15,858 s,CCN1C(=O)CCc2cc(NS(=O)(=O)c3ccc(C(F)(F)F)cc3)ccc21
16,723 s,CC(C)NC(=O)C1CCCN(c2nc3ncn(CC(=O)N4CCc5ccccc5C4)c(=O)c3s2)C1 (stereo not drawn)
17,819 s,Cc1ccc(N2CC(c3noc(-c4ccccc4OC(F)(F)F)n3)CC2=O)cc1 (stereo not drawn)
18,771 s,COCCN1C(=O)Cc2ccccc2C1C(=O)NCc1ccc(SC)cc1 (stereo not drawn)
19,666 s,CCn1c(SCC(=O)N2CCCC2)nnc1-c1ccc2c(c1)OCCCO2
20,689 s,O=C(c1ccc(F)cc1)N1CCCN(c2nnc3ccc(Cl)cn23)CC1
21,664 s,COc1ccc(-c2nc3cnccn3c2Nc2ccc(C(=O)N3CCOCC3)cc2)cc1

row,RP-LC retention time,Structure (SMILES)
1,987 s,COc1ccc(-c2ncc3c(n2)CCN(C(=O)Cc2ccc(OC)cc2Cl)C3)cc1
2,816 s,COc1ccccc1CNC(=O)C1CCN(S(=O)(=O)c2ccc3c(c2)CCCC(=O)N3)CC1
3,1090 s,O=C(c1ccc2c(c1)OCO2)N1CCc2cc(-c3csc(C4CC4)n3)ccc21
4,645 s,NC(=O)C1CCN(C(=O)c2snc(-c3ccccn3)c2N)CC1
5,850 s,CCC(=O)N1CCCc2cc(NC(=O)COc3ccc(F)cc3)ccc21
6,646 s,O=C(Cc1ccc(F)cc1)NCC(=O)N1CCOC(c2ccccc2)C1 (stereo not drawn)
7,722 s,O=C(c1ccc2c(c1)OCO2)N1CCCCC1
8,1120 s,CCOc1ccc(-n2c(N3CCSC3)nc3cc(C(=O)OC)ccc3c2=O)cc1
9,966 s,O=C(CCC1CCCN(S(=O)(=O)c2ccccc2F)C1)NCc1cc(F)ccc1F (stereo not drawn)
10,622 s,CCC1CN2C=NC(N3CCN(C(=O)Nc4ccc(OC)c(F)c4)CC3)=CC2=N1 (stereo not drawn)
11,849 s,CCCn1ccc2sc(C)c(C(=O)N3CCN(c4ccccc4)CC3)c2c1=O
12,826 s,O=C(Cn1cccc1-c1nc(-c2ccc(Cl)cc2)cs1)NCCCN1CCCC1
13,738 s,COc1ccc(-c2cn3ccn(-c4ccc(F)cc4)c(=O)c3n2)cc1OC
14,734 s,Cc1ccc(Nc2nc(C)cc(N3CCN(C(=O)C4CCCCC4)CC3)n2)cc1
15,600 s,COc1cccc(CNC(=O)Nc2cc3c(cc2N2CCCC2)n(C)c(=O)n3C)c1
16,771 s,CCc1ccc(Nc2nc(C(=O)N3CCOCC3)nc3ccccc23)cc1
17,989 s,CCCCn1cc(S(=O)(=O)Nc2ccc(F)cc2C)c2cccnc21
18,863 s,O=C(C1=CN(c2cccc(Br)c2)c2cc(F)ccc2S1(=O)=O)N1CCCC1
19,876 s,COc1ccc(OC)c(NC(=O)N2CCc3c(c(-c4nnc(-c5ccc(F)cc5)o4)nn3C)C2)c1
20,725 s,O=C(NCc1csc(C2CCN(C(=O)c3ccc(Cl)cc3)CC2)n1)C1CC1
21,619 s,CC(=O)Nc1ccc2c(c1)CN(C(=O)c1ccc(C#N)cc1)C(C(=O)N(C)C)C2 (stereo not drawn)
